Read-outs that look alike come from different tables or passages of the source.
Key:
Male Sprague-Dawley rats = test: Effect on energy expenditure of rats; assay type: in vivo; details: Rattus norvegicus, po, percentage of rate of rats dosed with water; for response vs control in vivo at 7.5 mg/kg: 7.5 mg/kg p.o.; for response vs control in vivo at 7.8 mg/kg: 7.8 mg/kg p.o.; for response vs control in vivo at 4 mg/kg: 4.0 mg/kg p.o.; for response vs control in vivo at 4.1 mg/kg: 4.1 mg/kg p.o.
Description: Water was provided ad lib at all times. The compounds were administered orally in water to 3 or 4 rats. A further 4 rats were dosed orally with water. The rats were placed in boxes through which air was drawn and the oxygen content of the air leaving the boxes was measured. The energy expenditure of the rats was calculated for 3 hours and for 21 hours after dosing from the volume of air leaving the boxes and its oxygen content, following the principles described by J.B. de V. Weir, J. Physiol. (London) 109, 1-9 (1949). The results are expressed as a percentage of the rate of energy expenditure of the rats dosed with water.

Female CFLP mice = test: Hypoglycaemic activity (subcutaneous glucose load, blood glucose curve); assay type: in vivo; details: glucose 1 g/kg subcutaneously, 2 hour period, compared with control mice given water
Description: Female CFLP mice, weighing approximately 25 g, were fasted for 24 hours prior to the study. The compounds under study were administered orally as an aqueous solution to each of 6 mice. 30 minutes later a blood sample (20 ul) was obtained from the tail for the analysis of blood glucose. Immediately after taking this blood sample, glucose (1 g/kg body weight) was administered subcutaneously to each mouse. 6 mice were given water as a control. Blood samples were then obtained from each mouse at 30 minute intervals for 120 minutes.
Compounds that produced a significant (p<0.05) reduction of blood glucose, compared with control mice qiven water, at any time interval were considered active. The area under the blood glucose curve over the 2 hour period after the administration of the glucose was calculated for each compound and compared with the value for control animals.

[1] = test system: spontaneously beating right atrium; test: Isolated rat atria: rate of the spontaneously beating right atrium; details: Rattus norvegicus, Krebs solution at 32°C; for Emax: maximal effect relative to isoprenaline maximum (isoprenaline = 1), read-out: Rate Intrinsic Activity; for EC50: molar concentration producing 50% of the compound's own maximum response
Description: (§1) Sprague-Dawley male rats (300-400g) are killed and the right and left atria dissected out independently and mounted on a combined tissue holder/electrode. […] The rate of the spontaneously beating right atrium (via an isometric transducer and a ratemeter) and the tension of the electrically paced left atrium (via an isometric transducer) are recorded on a M19 chart recorder.
(§2) After an initial stabilization period, the tissues are exposed to a maximal concentration of isoprenaline (10-^7M). The tissues are then washed several times until rate and tension return to baseline level. A dose-response curve to the test compound is then carried out.
(§3) Responses to each concentration of test compound are expressed as a percentage of the maximal responses to isoprenaline. Results are given in the form of (a) intrinsic activity (maximal effect of test compound with respect to isoprenaline maximum, i.e. isoprenaline intrinsic activity = 1) and (b) EC50 (the molar concentration at which the test compound produces 50% of its own maximum response).

[2] = test system: electrically paced left atrium; test: Isolated rat atria: tension of the electrically paced left atrium; details: Rattus norvegicus, Krebs solution at 32°C; for Emax: maximal effect relative to isoprenaline maximum (isoprenaline = 1), read-out: Tension Intrinsic Activity; for EC50: molar concentration producing 50% of the compound's own maximum response
Description: as §1, §2, §3

conscious cats = test: Inotropic activity in conscious cats; assay type: in vivo; details: for Peak dp/dt: maximal percentage change in dp/dt of left ventricular pressure over initial baseline level; for Peak HR: maximal percentage change in heart rate over initial baseline level; for dp/dt: HR: ratio of peak dp/dt change to peak HR change
Description: Male 3-4.5 kg cats, bred in-house are implanted with a polythene cannula in the left ventricle which is exte- riorised at the back of the neck by means of a small teflon valve. Recordings are made via a pressure transducer attached by means of a length of polyethylene tubing to the cat neck valve.
During an initial 1 hour stabilisation period, steady baseline recordings are obtained. The test compound contained in a gelatine capsule, is then administered orally. Recording is normally carried out for 6 hours post dosing.
The maximal percentage change in dp/dt over initial baseline level is used as the index of inotropic activity. Chronotropic activity is taken as the maximal percentage change in HR over the initial baseline level.

[3] = 3 h, 0-3h after dosing, read-out: Mean Energy Expenditure 0-3h
[4] = 21 h, 0-21h after dosing, read-out: Mean Energy Expenditure 0-21h

EC50 [1]	EC50 [2]	Compound	response vs control in vivo at 7.5 mg/kg (Male Sprague-Dawley rats; [3])	response vs control in vivo at 7.5 mg/kg (Male Sprague-Dawley rats; [4])	% Reduction in area under blood glucose curve (Female CFLP mice; 10 μmol/kg orally)	Emax [1]	Emax [2]	response vs control in vivo at 7.8 mg/kg (Male Sprague-Dawley rats; [3])	response vs control in vivo at 7.8 mg/kg (Male Sprague-Dawley rats; [4])	Peak dp/dt (conscious cats; 1 mg/kg p.o.)	Peak HR (conscious cats; 1 mg/kg p.o.)	dp/dt: HR (conscious cats; 1 mg/kg p.o.)	response vs control in vivo at 4 mg/kg (Male Sprague-Dawley rats; [3])	response vs control in vivo at 4 mg/kg (Male Sprague-Dawley rats; [4])	% Reduction in area under blood glucose curve (Female CFLP mice; 2.5 μmol/kg orally)	Peak dp/dt (conscious cats; 0.2 mg/kg p.o.)	Peak HR (conscious cats; 0.2 mg/kg p.o.)	response vs control in vivo at 4.1 mg/kg (Male Sprague-Dawley rats; [3])	response vs control in vivo at 4.1 mg/kg (Male Sprague-Dawley rats; [4])	% Reduction in area under blood glucose curve (Female CFLP mice; 25 μmol/kg orally)
25 nM	300 nM	CC(COc1ccc2c(c1)NC(=O)CO2)NCC(O)c1cccc(Cl)c1 (stereo not shown) [Example 6, 6-[2-[2-(3-Chlorophenyl)-2-hydroxyethylamino]-2-methylethoxy]-2H-1,4-benzoxazin-3-(4H)-one]	125%	105%	29%	66%	7%	–	–	–	–	–	–	–	–	–	–	–	–	–
14 nM	50 nM	CC(COc1ccc2c(c1)NC(=O)CO2)NCC(O)COc1ccc(O)cc1 (stereo not shown) [Example 4, 6-[2-[3-(4-Hydroxyphenoxy)-2-hydroxypropylamino]-2-methylethoxy]-2H-1,4-benzoxazin-3-(4H)-one]	–	–	–	89%	40%	128%	119%	50%	36%	1.4	–	–	–	–	–	–	–	–
5.5 nM	21 nM	CC(COc1ccc2c(c1)OCC(=O)N2)NCC(O)COc1ccc(O)cc1 (stereo not shown) [Example 3, 7-[2-[3-(4-Hydroxyphenoxy)-2-hydroxypropylamino]-2-methylethoxy]-2H-1,4-benzoxazin-3-(4H)-one]	–	–	–	72%	52%	–	–	95%	13%	7.3	108%	105%	3%	23%	0%	–	–	–
55 nM	85 nM	CC(COc1ccc2c(c1)OCC(=O)N2)NCC(O)c1cccc(Cl)c1 (stereo not shown) [Example 2, 7-[2-[2-(3-Chlorophenyl)-2-hydroxyethylamino]-2-methyl-ethoxy]-2H-1,4-benzoxazin-3-(4H)-one]	128%	110%	–	44%	18%	–	–	–	–	–	–	–	22%	–	–	–	–	–
6.2 nM	21 nM	CC(COc1ccc2c(c1)OCC(=O)N2)NCC(O)c1ccc(O)cc1 (stereo not shown) [Example 1, 7-[2-[2-(4-hydroxyphenyl)-2-hydroxyethylamino]-2-methylethoxy]-2H-1,4-benzoxazin-3-(4H)-one]	–	–	–	97%	97%	–	–	230%	46%	5.0	–	–	–	–	–	–	–	–
36 nM	45 nM	CC(COc1ccc2c(c1)NC(=O)CO2)NCC(O)c1ccc(Cl)c(Cl)c1 (stereo not shown) [Example 7, 6-[2-[2-(3,4-Dichlorophenyl)-2-hydroxyethylamino]-2-methylethoxy]-2H-1,4-benzoxazin-3-(4H)-one]	–	–	–	50%	14%	–	–	–	–	–	–	–	–	–	–	149%	107%	11%

Reference: patent EP0171702A1, “Benzoxazinone derivatives, preparation and use” (BEECHAM GROUP PLC, priority 1984, dated 1986)
